Source: US4206215A, “Antimicrobial bis-[4-(substituted-amino)-1-pyridinium]alkanes” (Sterling Drug Inc., priority 1977, dated 1980)

Columns and labels:
S. Aureus Smith = assay: In vitro antibacterial activity, MIC (modified Autotiter method); format: cell-based, Staphylococcus aureus; conditions: Staphylococcus aureus, 20 h, 18-20 hours at 37° C.; read-out: MIC S. Aureus Smith
Summary of the method: (§1)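 Twofold serial dilutions, final concentrations 500 to 0.06 mcg./ml., made automatically (modified Autotiter) from a 1,000 mcg./ml. stock and inoculated in double-strength semisynthetic glucose medium. Value recorded as minimum inhibitory concentration.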

E. coli 100/B22 = assay: as above; format: cell-based, Escherichia coli; conditions: Escherichia coli, 100/B22, 20 h, 18-20 hours at 37° C.; read-out: MIC E. coli 100/B22
Summary of the method: as §1

E. coli AB1932-1 = assay: as above; format: cell-based, Escherichia coli; conditions: Escherichia coli, AB19321, 20 h, 18-20 hours at 37° C.; read-out: MIC E. coli AB1932-1
Summary of the method: as §1

E. coli Vogel = assay: as above; format: cell-based, Escherichia coli; conditions: Escherichia coli, 20 h, 18-20 hours at 37° C.; read-out: MIC E. coli Vogel
Summary of the method: as §1

K. pneum. 39645 = assay: as above; format: cell-based, Klebsiella pneumoniae; conditions: Klebsiella pneumoniae, 20 h, 18-20 hours at 37° C.; read-out: MIC K. pneum. 39645
Summary of the method: as §1

P. mirab. MGH-1 = assay: as above; format: cell-based, Proteus mirabilis; conditions: Proteus mirabilis, 20 h, 18-20 hours at 37° C.; read-out: MIC P. mirab. MGH-1
Summary of the method: as §1

Ps. aerug. MGH-2 = assay: as above; format: cell-based, Pseudomonas aeruginosa; conditions: Pseudomonas aeruginosa, 20 h, 18-20 hours at 37° C.; read-out: MIC Ps. aerug. MGH-2
Summary of the method: as §1

S. pyogen. C203 = assay: as above; format: cell-based, Streptococcus pyogenes; conditions: Streptococcus pyogenes, 20 h, 18-20 hours at 37° C.; read-out: MIC S. pyogen. C203
Summary of the method: as §1

A. niger 16404 = assay: In vitro antifungal activity, MIC (modified Autotiter method); format: cell-based, Aspergillus niger; conditions: Aspergillus niger, 16404, 20 h, 18-20 hours at 37° C.; read-out: MIC A. niger 16404
Summary of the method: as §1

C. albicans 10231 = assay: as above; format: cell-based, Candida albicans; conditions: Candida albicans, 10231, 20 h, 18-20 hours at 37° C.; read-out: MIC C. albicans 10231
Summary of the method: as §1

C. albicans Wisc. = assay: as above; format: cell-based, Candida albicans; conditions: Candida albicans, 20 h, 18-20 hours at 37° C.; read-out: MIC C. albicans Wisc.
Summary of the method: as §1

T. menta. 9129 = assay: as above; format: cell-based, Trichophyton mentagrophytes; conditions: Trichophyton mentagrophytes, 20 h, 18-20 hours at 37° C.; read-out: MIC T. menta. 9129
Summary of the method: as §1

[1] = system: Herpes simplex type 2 virus; assay: Virucidal activity in vitro (plaque inhibition test); format: cell-based; conditions: 2 mg. of test compound on growth medium
Protocol: Virucidal activity of representative examples against Herpes simplex type 2 virus was determined in vitro employing a procedure similar to the plaque inhibition test for detection of specific inhibitors of DNA-containing viruses published by E. C. Herrmann, Jr., Proc. Soc. Exp. Biol. Med. 107, 142 (1961) wherein 2 mg. of the test compound was placed on the surface of the growth medium.

SMILES	MIC (S. Aureus Smith) [µg/mL]	MIC (E. coli 100/B22) [µg/mL]	MIC (E. coli AB1932-1) [µg/mL]	MIC (E. coli Vogel) [µg/mL]	MIC (K. pneum. 39645) [µg/mL]	MIC (P. mirab. MGH-1) [µg/mL]	MIC (Ps. aerug. MGH-2) [µg/mL]	MIC (S. pyogen. C203) [µg/mL]	MIC (A. niger 16404) [µg/mL]	MIC (C. albicans 10231) [µg/mL]	MIC (C. albicans Wisc.) [µg/mL]	MIC (T. menta. 9129) [µg/mL]	Virucidal activity against Herpes simplex type 2 virus [1]
c1c[n+](CCCCC[n+]2ccc(NC3CCCCC3)cc2)ccc1NC1CCCCC1 [Example 35, 1,5-bis-[4-(cyclohexylamino)-1-pyridinium]pentane dibromide]	125	> 500	> 500	> 500	> 500	> 500	> 500	15.6	500	500	500	125	active
c1c[n+](CCCC[n+]2ccc(NC3CCCCC3)cc2)ccc1NC1CCCCC1 [Example 34, 1,4-bis-[4-(cyclohexylamino)-1-pyridinium]butane dibromide]	125	125	125	125	> 500	> 500	> 500	31.3	500	500	500	125	inactive
c1c[n+](CCCCCCC[n+]2ccc(NC3CCCCC3)cc2)ccc1NC1CCCCC1 [Example 37, 1,7-bis-[4-(cyclohexylamino)-1-pyridinium]heptane dibromide]	7.8	> 125	125	> 125	> 125	> 125	125	7.8	> 125	125	125	15.6	active
Clc1ccc(Nc2cc[n+](CCCCCCCCC[n+]3ccc(Nc4ccc(Cl)cc4)cc3)cc2)cc1 [Example 82, 1,9-bis-[4-(p-chlorophenylamino)-1-pyridinium]nonane dibromide]	0.625	1.95	0.98	0.98	7.8	> 125	125	0.24	15.6	3.9	3.9	3.9	active
CCCCCCCNc1cc[n+](CCCCC[n+]2ccc(NCCCCCCC)cc2)cc1 [Example 60, 1,5-bis-[4-(heptylamino)-1-pyridinium]pentane dibromide]	0.49	7.8	3.9	31.3	31.3	> 125	125	1.95	15.6	15.6	15.6	7.8	active
CCCCCCNc1cc[n+](CCCC[n+]2ccc(NCCCCCC)cc2)cc1 [Example 16, 1,4-bis-[4-(hexylamino)-1-pyridinium]butane dibromide]	7.8	125	62.5	125	> 125	> 125	> 250	1.95	125	125	125	15.6	inactive
CCCCC(CC)CNc1cc[n+](CCCCCC[n+]2ccc(NCC(CC)CCCC)cc2)cc1 (stereo not shown) [Example 54, 1,6-bis-[4-(2-ethylhexylamino)-1-pyridinium]hexane dibromide]	0.49	3.9	1.95	7.8	125	> 125	> 250	0.625	15.6	7.8	7.8	1.95	active
c1c[n+](CCCCCCCCC[n+]2ccc(NC3CCCCC3)cc2)ccc1NC1CCCCC1 [Example 39, 1,9-bis-[4-(cyclohexylamino)-1-pyridinium]nonane dibromide]	0.98	31.3	31.3	31.3	125	> 500	500	3.9	7.8	15.6	15.6	3.9	inactive
CCCCCCCNc1cc[n+](CCCCCCC[n+]2ccc(NCCCCCCC)cc2)cc1 [Example 21, 1,7-bis-[4-(heptylamino)-1-pyridinium]heptane dibromide]	0.24	1.95	1.95	1.95	3.9	125	125	0.98	15.6	3.9	3.9	3.9	active
CCCCC(CC)CNc1cc[n+](CCCCCCCCC[n+]2ccc(NCC(CC)CCCC)cc2)cc1 (stereo not shown) [Example 57, 1,9-bis-[4-(2-ethylhexylamino)-1-pyridinium]nonane dibromide]	0.31	0.98	0.98	0.98	7.8	125	125	0.625	15.6	3.9	3.9	0.98	active
Clc1ccc(Nc2cc[n+](CCCCCCC[n+]3ccc(Nc4ccc(Cl)cc4)cc3)cc2)cc1 [Example 81, 1,7-bis-[4-(p-chlorophenylamino)-1-pyridinium]heptane dibromide]	0.98	3.9	125	3.9	> 125	> 125	> 125	0.49	31.3	31.3	31.3	7.8	active
CCCCCCNc1cc[n+](CCCCCCC[n+]2ccc(NCCCCCC)cc2)cc1 [Example 18, 1,7-bis-[4-(hexylamino)-1-pyridinium]heptane dibromide]	0.39	7.8	7.8	15.6	15.6	> 125	> 125	0.49	15.6	6.25	7.8	15.6	active
CCCCC(CC)CNc1cc[n+](CCCCC[n+]2ccc(NCC(CC)CCCC)cc2)cc1 (stereo not shown) [Example 53, 1,5-bis-[4-(2-ethylhexylamino)-1-pyridinium]pentane dibromide]	0.49	15.6	7.8	15.6	> 125	> 125	125	0.625	31.3	31.3	15.6	7.8	active
